Experimental findings from patent US10961236B2, “(S)-2-(1-cyclopropylethyl)-5-(4-methyl-2-((6-(2-oxopyrrolidin-1-yl)pyridin-2-yl)amino) thiazol-5-yl)-7-(methylsulfonyl)isoindolin-1-one as a phosphatidylinositol 3-kinase inhibitor” (AstraZeneca AB, priority 2016, dated 2021) are described below.

The structures appear in SMILES notation. pIC50: −log10 of the molar value.

Type in all cases: biochemical
Test [1] deals with recombinant human PI3Kγ ((aa144-1102)-6His) (Homo sapiens (Human), UniProt P48736). Description: Enzymatic activity assay for recombinant human PI3Kγ (ADP-Glo). The note with it: 1.2 nM PI3Kγ, 20 μM ATP, 80 μM DiC8-PIP2, ADP-Glo. Here is the method: (§1) Enzymatic Activity Assay for Recombinant Human PI3K α, β, δ and γ.
(§2) The activity of recombinant human PI3Kγ ((aa144-1102)-6His) and PI3Kα, β, δ (6-His(p110-p85α)) was determined by measuring the ADP level after phosphorylation of DiC8-PIP2 using a commercially available ADP-Glo™ kit from Promega. The assay was carried out in white low volume 384 well plates in a final volume of 14 μl at R.T. The assay conditions contained the following: 50 mM Tris buffer pH 7.4, 2.1 mM DTT, 3 mM MgCl2, 0.05% CHAPS, 20 μM ATP, 80 μM DiC8-PIP2 and 1.2 nM PI3Kα, β, γ or 0.6 nM PI3Kδ. […] Routinely, inhibitors were pre-incubated with 3 μl of enzyme for 15 min prior to the addition of 2 μl substrate mixture for a further 60 min enzyme reaction. The phosphorylation was stopped with the addition of 3 μl ADP-Glo™ reagent (stop solution) followed by a 40 min incubation. Prior to detection 6 μl of ADP-Glo™ Kinase Detection Reagent was added and the plates were read in a micro plate reader using a Luminescence filter. All additions were followed by a short centrifugation step.
(In general: In ADP-Glo the light output rises with the ADP produced.)

For test [2], the target named is recombinant human PI3Kδ (6-His(p110-p85α)) (Homo sapiens (Human), UniProt O00329). Description: Enzymatic activity assay for recombinant human PI3Kδ (ADP-Glo). The note with it: 0.6 nM PI3Kδ, 20 μM ATP, 80 μM DiC8-PIP2, ADP-Glo. Here is the method:
as §1, §2

Test [3] addresses recombinant human PI3Kα (6-His(p110-p85α)) (Homo sapiens (Human), UniProt P42336). Description: Enzymatic activity assay for recombinant human PI3Kα (ADP-Glo). Particulars: 1.2 nM PI3Kα, 20 μM ATP, 80 μM DiC8-PIP2, ADP-Glo. Here is the method:
as §1
as §2, with “PI3Kδ. Potential inhibitors were made up in DMSO and then diluted in the assay to give a final concentration of not exceeding 1% (v/v) DMSO.” for “PI3Kδ.”

Test [4] concerns the target recombinant human PI3Kβ (6-His(p110-p85α)) (Homo sapiens (Human), UniProt P42338). Description: Enzymatic activity assay for recombinant human PI3Kβ (ADP-Glo). The note with it: 1.2 nM PI3Kβ, 20 μM ATP, 80 μM DiC8-PIP2, ADP-Glo. Here is the method: as §1
as §2, with “PI3Kδ. Potential inhibitors were made up in DMSO and then diluted in the assay to give a final concentration of not exceeding 1% (v/v) DMSO.” for “PI3Kδ.”

Sequence of recombinant human PI3Kδ (6-His(p110-p85α)) (O00329 whole entry): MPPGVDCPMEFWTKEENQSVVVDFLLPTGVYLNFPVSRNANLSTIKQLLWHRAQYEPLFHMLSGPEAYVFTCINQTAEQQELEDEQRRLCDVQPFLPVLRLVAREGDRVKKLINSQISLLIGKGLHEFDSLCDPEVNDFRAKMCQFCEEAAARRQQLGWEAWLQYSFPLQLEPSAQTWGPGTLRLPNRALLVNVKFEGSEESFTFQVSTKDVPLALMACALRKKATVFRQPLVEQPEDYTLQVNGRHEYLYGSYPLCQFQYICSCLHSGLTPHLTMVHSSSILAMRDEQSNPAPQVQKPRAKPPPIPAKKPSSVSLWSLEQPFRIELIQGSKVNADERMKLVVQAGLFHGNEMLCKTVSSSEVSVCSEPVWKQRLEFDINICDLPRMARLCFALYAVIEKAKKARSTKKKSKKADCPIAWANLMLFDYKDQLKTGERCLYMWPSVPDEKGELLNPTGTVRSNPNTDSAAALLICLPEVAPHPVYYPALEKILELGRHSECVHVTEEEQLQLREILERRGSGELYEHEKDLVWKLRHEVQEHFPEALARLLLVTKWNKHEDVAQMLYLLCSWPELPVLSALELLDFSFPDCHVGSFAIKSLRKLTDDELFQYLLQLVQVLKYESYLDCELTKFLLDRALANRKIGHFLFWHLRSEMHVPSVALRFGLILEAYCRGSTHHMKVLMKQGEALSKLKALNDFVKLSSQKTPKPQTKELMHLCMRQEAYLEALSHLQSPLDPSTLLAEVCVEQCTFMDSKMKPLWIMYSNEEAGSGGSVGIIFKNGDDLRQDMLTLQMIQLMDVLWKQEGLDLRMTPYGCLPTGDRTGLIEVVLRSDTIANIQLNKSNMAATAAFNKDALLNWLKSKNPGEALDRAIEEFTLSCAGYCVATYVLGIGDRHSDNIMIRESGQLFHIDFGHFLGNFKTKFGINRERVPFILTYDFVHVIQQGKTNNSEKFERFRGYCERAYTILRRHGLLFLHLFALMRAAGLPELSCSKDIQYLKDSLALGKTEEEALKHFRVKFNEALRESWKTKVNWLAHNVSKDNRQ
Sequence of recombinant human PI3Kδ (6-His(p110-p85α)) (P27986 whole entry partner): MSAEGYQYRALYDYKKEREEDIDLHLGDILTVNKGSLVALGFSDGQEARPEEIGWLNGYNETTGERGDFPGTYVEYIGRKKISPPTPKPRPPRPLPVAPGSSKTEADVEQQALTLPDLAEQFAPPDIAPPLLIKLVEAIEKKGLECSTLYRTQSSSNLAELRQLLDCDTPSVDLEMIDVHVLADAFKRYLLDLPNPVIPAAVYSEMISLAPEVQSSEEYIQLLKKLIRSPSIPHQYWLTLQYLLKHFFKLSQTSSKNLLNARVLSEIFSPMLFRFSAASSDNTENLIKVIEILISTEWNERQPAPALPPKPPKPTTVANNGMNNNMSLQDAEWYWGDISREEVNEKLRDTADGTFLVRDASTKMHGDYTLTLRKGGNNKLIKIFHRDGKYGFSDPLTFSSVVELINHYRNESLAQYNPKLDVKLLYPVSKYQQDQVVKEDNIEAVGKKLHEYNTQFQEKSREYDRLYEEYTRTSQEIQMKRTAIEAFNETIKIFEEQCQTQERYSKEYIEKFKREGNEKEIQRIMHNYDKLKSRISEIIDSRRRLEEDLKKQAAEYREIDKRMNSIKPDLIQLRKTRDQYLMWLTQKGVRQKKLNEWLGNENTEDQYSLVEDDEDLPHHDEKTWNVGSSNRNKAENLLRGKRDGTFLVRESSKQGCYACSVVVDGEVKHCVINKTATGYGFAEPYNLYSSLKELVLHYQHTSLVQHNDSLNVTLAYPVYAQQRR
Sequence of recombinant human PI3Kβ (6-His(p110-p85α)) (P42338 whole entry): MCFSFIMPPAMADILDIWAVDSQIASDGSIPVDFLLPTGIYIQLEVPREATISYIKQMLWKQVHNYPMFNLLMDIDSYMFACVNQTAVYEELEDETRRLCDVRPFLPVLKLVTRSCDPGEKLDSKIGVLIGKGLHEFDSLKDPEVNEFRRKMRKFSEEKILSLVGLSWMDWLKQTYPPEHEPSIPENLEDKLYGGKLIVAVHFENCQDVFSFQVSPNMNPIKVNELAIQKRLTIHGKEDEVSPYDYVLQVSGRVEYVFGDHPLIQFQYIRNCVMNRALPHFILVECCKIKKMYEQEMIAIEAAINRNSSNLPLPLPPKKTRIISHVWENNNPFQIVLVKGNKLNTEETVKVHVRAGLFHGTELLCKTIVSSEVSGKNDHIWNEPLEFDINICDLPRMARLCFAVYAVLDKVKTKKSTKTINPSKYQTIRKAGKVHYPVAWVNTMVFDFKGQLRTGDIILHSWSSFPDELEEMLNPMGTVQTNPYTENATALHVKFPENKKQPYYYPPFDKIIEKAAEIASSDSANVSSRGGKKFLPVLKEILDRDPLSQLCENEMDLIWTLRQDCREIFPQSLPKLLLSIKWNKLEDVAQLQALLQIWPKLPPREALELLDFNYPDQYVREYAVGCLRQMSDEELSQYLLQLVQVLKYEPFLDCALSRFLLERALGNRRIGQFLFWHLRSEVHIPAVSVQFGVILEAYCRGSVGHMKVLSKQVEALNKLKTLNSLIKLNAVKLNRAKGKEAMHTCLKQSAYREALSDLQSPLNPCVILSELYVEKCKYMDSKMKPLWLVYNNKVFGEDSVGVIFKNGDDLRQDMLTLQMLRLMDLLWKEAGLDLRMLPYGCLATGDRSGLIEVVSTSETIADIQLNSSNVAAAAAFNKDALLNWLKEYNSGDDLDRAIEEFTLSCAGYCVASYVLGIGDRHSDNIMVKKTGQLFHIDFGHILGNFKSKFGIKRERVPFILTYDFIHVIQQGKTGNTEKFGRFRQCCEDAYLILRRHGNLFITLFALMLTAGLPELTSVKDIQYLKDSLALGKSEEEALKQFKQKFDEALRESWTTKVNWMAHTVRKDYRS
Sequence of recombinant human PI3Kβ (6-His(p110-p85α)) (P27986 whole entry partner): as the sequence (P27986 whole entry partner) above
Sequence of recombinant human PI3Kα (6-His(p110-p85α)) (P42336 whole entry): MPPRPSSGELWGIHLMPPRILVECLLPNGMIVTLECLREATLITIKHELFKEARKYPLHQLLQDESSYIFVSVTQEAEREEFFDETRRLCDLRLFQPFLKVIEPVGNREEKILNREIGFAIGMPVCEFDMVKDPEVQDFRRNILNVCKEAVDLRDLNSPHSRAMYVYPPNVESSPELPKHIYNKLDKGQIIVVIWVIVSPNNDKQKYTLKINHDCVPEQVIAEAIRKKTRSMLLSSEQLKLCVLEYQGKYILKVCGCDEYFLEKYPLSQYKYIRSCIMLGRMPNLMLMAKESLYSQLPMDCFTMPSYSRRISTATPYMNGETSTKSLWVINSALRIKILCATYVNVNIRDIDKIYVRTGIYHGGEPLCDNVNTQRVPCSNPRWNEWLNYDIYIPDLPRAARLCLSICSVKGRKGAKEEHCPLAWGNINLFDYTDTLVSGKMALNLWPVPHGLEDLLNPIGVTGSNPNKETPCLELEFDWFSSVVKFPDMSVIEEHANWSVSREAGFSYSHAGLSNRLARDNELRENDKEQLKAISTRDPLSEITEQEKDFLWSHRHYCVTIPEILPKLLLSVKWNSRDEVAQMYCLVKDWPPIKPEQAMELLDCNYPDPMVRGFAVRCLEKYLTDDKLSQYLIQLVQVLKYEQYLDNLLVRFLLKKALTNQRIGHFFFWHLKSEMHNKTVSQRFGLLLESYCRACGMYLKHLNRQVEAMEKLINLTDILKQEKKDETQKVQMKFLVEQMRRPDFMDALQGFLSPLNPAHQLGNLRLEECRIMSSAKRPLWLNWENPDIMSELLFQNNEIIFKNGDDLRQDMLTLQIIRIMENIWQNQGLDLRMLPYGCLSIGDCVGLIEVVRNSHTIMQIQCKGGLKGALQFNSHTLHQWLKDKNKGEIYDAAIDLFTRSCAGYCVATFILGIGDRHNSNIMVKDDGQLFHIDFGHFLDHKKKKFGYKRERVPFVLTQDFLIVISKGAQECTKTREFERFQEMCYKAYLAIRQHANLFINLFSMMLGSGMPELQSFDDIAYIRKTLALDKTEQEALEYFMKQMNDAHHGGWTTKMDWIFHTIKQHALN
Sequence of recombinant human PI3Kα (6-His(p110-p85α)) (P27986 whole entry partner): as the sequence (P27986 whole entry partner) above
Sequence of recombinant human PI3Kγ ((aa144-1102)-6His) (P48736 144-1102): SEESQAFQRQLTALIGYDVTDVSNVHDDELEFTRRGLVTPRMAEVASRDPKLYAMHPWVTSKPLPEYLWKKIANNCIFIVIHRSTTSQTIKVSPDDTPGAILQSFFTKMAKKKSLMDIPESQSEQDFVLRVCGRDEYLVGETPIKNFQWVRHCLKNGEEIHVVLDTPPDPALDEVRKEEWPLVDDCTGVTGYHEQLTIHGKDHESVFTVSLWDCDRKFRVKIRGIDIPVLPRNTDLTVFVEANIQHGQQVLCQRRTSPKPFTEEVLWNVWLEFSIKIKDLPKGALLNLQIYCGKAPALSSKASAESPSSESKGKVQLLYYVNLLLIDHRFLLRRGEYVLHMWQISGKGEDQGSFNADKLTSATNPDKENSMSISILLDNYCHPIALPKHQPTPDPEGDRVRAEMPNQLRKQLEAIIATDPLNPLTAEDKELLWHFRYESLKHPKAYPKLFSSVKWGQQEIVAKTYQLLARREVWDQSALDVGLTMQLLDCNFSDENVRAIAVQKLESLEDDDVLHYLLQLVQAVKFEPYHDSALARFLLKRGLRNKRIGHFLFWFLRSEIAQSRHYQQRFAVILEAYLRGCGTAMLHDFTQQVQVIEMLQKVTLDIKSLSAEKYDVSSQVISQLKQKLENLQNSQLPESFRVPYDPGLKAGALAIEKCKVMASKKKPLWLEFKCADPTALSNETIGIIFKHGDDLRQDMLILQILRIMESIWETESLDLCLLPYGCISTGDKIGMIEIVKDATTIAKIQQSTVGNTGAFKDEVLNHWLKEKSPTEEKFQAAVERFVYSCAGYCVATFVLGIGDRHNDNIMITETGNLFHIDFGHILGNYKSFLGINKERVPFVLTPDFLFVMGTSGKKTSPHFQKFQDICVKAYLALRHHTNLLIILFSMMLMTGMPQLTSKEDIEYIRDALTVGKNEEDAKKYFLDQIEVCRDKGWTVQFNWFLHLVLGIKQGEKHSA

`Cc1nc(Nc2cccc(N3CCNCC3=O)n2)sc1-c1cc2c(c(S(=O)(=O)NC(C)C)c1)C(=O)N([C@@H](C)C1CC1)C2` [Example 51, 2-[(1S)-1-Cyclopropylethyl]-6-(4-methyl-2-{[6-(2-oxopiperazin-1-yl)pyridin-2-yl]amino}-1,3-thiazol-5-yl)-3-oxo-N-(propan-2-yl)-2,3-dihydro-1H-isoindole-4-sulfonamide]: the pIC50 was 8.82 in test [1], 8.96 in test [2], 6.87 in test [3] and 6.38 in test [4].

As for `Cc1nc(Nc2cccc(N3CC[C@H](O)C3=O)n2)sc1-c1cc2c(c(S(=O)(=O)NC(C)C)c1)C(=O)N([C@@H](C)C(F)(F)F)C2` [Example 60, 6-[2-({6-[(3S)-3-Hydroxy-2-oxopyrrolidin-1-yl]pyridin-2-yl}amino)-4-methyl-1,3-thiazol-5-yl]-3-oxo-N-(propan-2-yl)-2-[(2S)-1,1,1-trifluoropropan-2-yl]-2,3-dihydro-1H-isoindole-4-sulfonamide], the pIC50 in test [1] is 8.92; in test [2], 9.30; in test [3], 7.24; in test [4], 6.49.

On to `CNS(=O)(=O)c1cc(-c2sc(Nc3cccc(N4C[C@@H](C)NCC4=O)n3)nc2C)cc2c1C(=O)N([C@@H](C)C1CC1)C2` [Example 45, 2-[(1S)-1-Cyclopropylethyl]-N-methyl-6-[4-methyl-2-({6-[(5R)-5-methyl-2-oxopiperazin-1-yl]pyridin-2-yl}amino)-1,3-thiazol-5-yl]-3-oxo-2,3-dihydro-1H-isoindole-4-sulfonamide], for which the negative logarithm of the IC50 (pIC50) in test [1] is 9.10; in test [2], 9.00; in test [3], 7.48; in test [4], 6.59.

For the molecule `Cc1nc(Nc2cccc(N3CCOC3=O)n2)sc1-c1cc2c(c(S(C)(=O)=O)c1)C(=O)N([C@@H](C)C(F)(F)F)C2` [Example 12, 5-(4-Methyl-2-{[6-(2-oxo-1,3-oxazolidin-3-yl)pyridin-2-yl]amino}-1,3-thiazol-5-yl)-7-(methylsulfonyl)-2-[(2S)-1,1,1-trifluoropropan-2-yl]-2,3-dihydro-1H-isoindol-1-one], the pIC50 was 9.05 in test [1], 8.80 in test [2], 6.52 in test [3] and 5.39 in test [4].

As to `CNS(=O)(=O)c1cc(-c2sc(Nc3cccc(N4CCCOC4=O)n3)nc2C)cc2c1C(=O)N([C@@H](C)C1CC1)C2` [Example 21, 2-[(1S)-1-Cyclopropylethyl]-N-methyl-6-(4-methyl-2-{[6-(2-oxo-1,3-oxazinan-3-yl)pyridin-2-yl]amino}-1,3-thiazol-5-yl)-3-oxo-2,3-dihydro-1H-isoindole-4-sulfonamide], the pIC50 in test [1] was 8.96; in test [2], 9.22; in test [3] it was 7.72; in test [4] it was 6.99.

Take `CNS(=O)(=O)c1cc(-c2sc(Nc3cccc(N4CCNCCC4=O)n3)nc2C)cc2c1C(=O)N([C@@H](C)C1CC1)C2` [Example 53, 2-[(1S)-1-Cyclopropylethyl]-N-methyl-6-(4-methyl-2-{[6-(7-oxo-1,4-diazepan-1-yl)pyridin-2-yl]amino}-1,3-thiazol-5-yl)-3-oxo-2,3-dihydro-1H-isoindole-4-sulfonamide]: the pIC50 in test [1] was 8.85; in test [2], 9.15; in test [3], 7.19; in test [4] it was 6.58.

`CCOCC(=O)N(C)c1cccc(Nc2nc(C)c(-c3cc4c(c(S(=O)(=O)NC)c3)C(=O)N([C@@H](C)C3CC3)C4)s2)n1` [Example 17, N-{6-[(5-{2-[(1S)-1-Cyclopropylethyl]-7-(methylsulfamoyl)-1-oxo-2,3-dihydro-1H-isoindol-5-yl}-4-methyl-1,3-thiazol-2-yl)amino]pyridin-2-yl}-2-ethoxy-N-methylacetamide]: the pIC50 in test [1] is 8.96; in test [2], 9.52; in test [3], 7.32; in test [4] it was 6.17.

With `CNS(=O)(=O)c1cc(-c2sc(Nc3cccc(N4CCCS4(=O)=O)n3)nc2C)cc2c1C(=O)N([C@@H](C)C1CC1)C2` [Example 24, 2-[(1S)-1-Cyclopropylethyl]-6-(2-{[6-(1,1-dioxido-1,2-thiazolidin-2-yl)pyridin-2-yl]amino}-4-methyl-1,3-thiazol-5-yl)-N-methyl-3-oxo-2,3-dihydro-1H-isoindole-4-sulfonamide], the pIC50 is 9.05 in test [1], 9.40 in test [2], 7.38 in test [3] and 6.05 in test [4].

Turning to `Cc1nc(Nc2cccc(N3CCOC3=O)n2)sc1-c1cc2c(c(S(=O)(=O)NC3COC3)c1)C(=O)N([C@@H](C)C1CC1)C2` [Example 33, 2-[(1S)-1-Cyclopropylethyl]-6-(4-methyl-2-{[6-(2-oxo-1,3-oxazolidin-3-yl)pyridin-2-yl]amino}-1,3-thiazol-5-yl)-N-(oxetan-3-yl)-3-oxo-2,3-dihydro-1H-isoindole-4-sulfonamide], the pIC50 in test [1] was 8.92; in test [2], 8.85; in test [3] it was 6.33; in test [4], 5.47.

With `Cc1nc(Nc2cccc(N3CCCC3=O)n2)sc1-c1cc2c(c(S(=O)(=O)NC3COC3)c1)C(=O)N([C@@H](C)C1CC1)C2` [Example 32, 2-[(1S)-1-Cyclopropylethyl]-6-(4-methyl-2-{[6-(2-oxopyrrolidin-1-yl)pyridin-2-yl]amino}-1,3-thiazol-5-yl)-N-(oxetan-3-yl)-3-oxo-2,3-dihydro-1H-isoindole-4-sulfonamide], the pIC50 in test [1] is 8.89; in test [2], 9.15; in test [3], 6.85; in test [4] it was 5.69.

On to `CNS(=O)(=O)c1cc(-c2sc(Nc3cccc(N4CCOCC4=O)n3)nc2C)cc2c1C(=O)N([C@@H](C)C1CC1)C2` [Example 20, 2-[(1S)-1-Cyclopropylethyl]-N-methyl-6-(4-methyl-2-{[6-(3-oxomorpholin-4-yl)pyridin-2-yl]amino}-1,3-thiazol-5-yl)-3-oxo-2,3-dihydro-1H-isoindole-4-sulfonamide], for which the pIC50 in test [1] is 9.05; in test [2] it was 9.15; in test [3], 7.43; in test [4] it was 6.27.

Take `CNS(=O)(=O)c1cc(-c2sc(Nc3cccc(N4CCN(CCO)CC4=O)n3)nc2C)cc2c1C(=O)N([C@@H](C)C1CC1)C2` [Example 59, 2-[(1S)-1-Cyclopropylethyl]-6-[2-({6-[4-(2-hydroxyethyl)-2-oxopiperazin-1-yl]pyridin-2-yl}amino)-4-methyl-1,3-thiazol-5-yl]-N-methyl-3-oxo-2,3-dihydro-1H-isoindole-4-sulfonamide]: the pIC50 is 9.05 in test [1], 9.15 in test [2], 7.57 in test [3] and 6.32 in test [4].

As for `CNS(=O)(=O)c1cc(-c2sc(Nc3cccc(N4C(=O)CC[C@@H]4CO)n3)nc2C)cc2c1C(=O)N([C@@H](C)C1CC1)C2` [Example 58, 2-[(1S)-1-Cyclopropylethyl]-6-[2-({6-[(2R)-2-(hydroxymethyl)-5-oxopyrrolidin-1-yl]pyridin-2-yl}amino)-4-methyl-1,3-thiazol-5-yl]-N-methyl-3-oxo-2,3-dihydro-1H-isoindole-4-sulfonamide], the pIC50 in test [1] is 8.92; in test [2] it was 8.54; in test [3], 7.37; in test [4] it was 6.00.

As usually defined, the pIC50 is the IC50 on a negative log10 scale, so that one unit is a factor of ten.
